Test results published in paper PMC10979747 (Journal of the American Chemical Society, 2024).
Read-outs that look alike come from different tables or passages of the source. Numbered stars: 1 amine (or outer) side, 2 acyl side, 3 side chain; on linkers, the order of the positions; unused ones are H or OH. Bridge positions count the residues as written; N and C are the ends. Square brackets hold non-standard residues; d marks the D form. Peptide text beside a SMILES is read from it. X1 = C=C(N[*:2])c1nc(-c2nc(-c3nc(C(=O)OC)cs3)ccc2C(=O)[*:1])cs1; NMePhe(4-NO2) = CN[C@@H](Cc1ccc([N+](=O)[O-])cc1)C(=O)O; LeuThz(4-CO) = CC(C)C[C@H](N[*:1])c1nc(C(=O)[*:2])cs1; ValThz = CC(C)[C@H](N[*:1])c1nc(C(=O)[*:2])cs1; Tic(7-OH) = O=C(O)[C@@H]1Cc2ccc(O)cc2CN1; X3 = C/C=C(\N[*:1])c1nc(C(=O)[*:2])cs1; Aad = N[C@@H](CCCC(=O)O)C(=O)O; Dhb = C/C=C(\N)C(=O)O; Dha = C=C(N)C(=O)O; Sar = CNCC(=O)O

How the values were obtained:
[1] = Serum stability assay (LC/MS against internal standard); conditions: for half-life at 10 µM: human, human serum diluted in TBS, pH 7.6
TNIK [2] = biological target: T1, TNIK (Homo sapiens, UniProt Q9UKE5); assay: Surface plasmon resonance, binding of thiopeptides to immobilized biotinylated TNIK (single-cycle, then multicycle kinetics); design: Biotinylated TNIK (kinase domain, amino acids 1-314;); biotin (biotinylated protein); purchased Carna Biosciences (Kobe, Japan); conditions: for KD / koff / kon / Kd: SPR kinetic data, binding to immobilized TNIK; for KD (binding affinity to TNIK): average from three multicycle kinetic experiments, 1:1 binding model, 25 °C; for Kd: read-out: KD
T1 sequence (Q9UKE5 1-314): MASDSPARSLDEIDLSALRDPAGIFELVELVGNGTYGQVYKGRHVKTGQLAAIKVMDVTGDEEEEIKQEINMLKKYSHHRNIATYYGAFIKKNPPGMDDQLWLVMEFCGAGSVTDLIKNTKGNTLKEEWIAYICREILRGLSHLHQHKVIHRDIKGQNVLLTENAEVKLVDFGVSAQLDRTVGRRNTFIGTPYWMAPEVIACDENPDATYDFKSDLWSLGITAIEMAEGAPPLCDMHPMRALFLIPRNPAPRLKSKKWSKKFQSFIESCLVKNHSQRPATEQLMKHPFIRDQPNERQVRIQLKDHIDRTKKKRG
Description: 2.8. Surface plasmon resonance
In the initial experiment, binding affinities between the thiopeptides and TNIK were measured with a Biacore T200 instrument (GE Healthcare) at 25 °C. The assay buffer contained 50 mM Tris (pH 7.5), 150 mM NaCl, 10 mM MgCl2, 0.01% (v/v) tween-20 and 0.1% (v/v) DMSO. For wTP3, the assay buffer additionally contained ATP (f.c.: 1 mM).
Biotinylated TNIK was immobilized on a Biacore CAP chip (GE Healthcare) to a surface density of 950-1200 response units following the standard immobilization protocols provided by the manufacturer. The interaction sensorgrams were measured as single-cycle kinetics performed with five concentrations of the ligand sequentially flown over the chip at a flow rate of 15 μL/min allowing for 20 or 30 s association and 70 or 60 s for dissociation between the steps. The final dissociation step was allowed to proceed for 180 s. […]
was repeated in triplicate on a Biacore 8K instrument (GE Healthcare) using a multi cycle kinetics format. The experimental details were as above, except ATP was not added to the buffer for wTP3. Kinetic parameters and affinities of the interaction were determined assuming the standard 1:1 binding model using the Biacore software (GE Healthcare).
Reported KD values were calculated from the average measured association and dissociation rates (Table S5).

TNIK [3] = biological target: T1, TNIK; assay: ADP-Glo kinase inhibition assay; type: biochemical; design: Biotinylated TNIK (kinase domain, amino acids 1-314;); biotin (biotinylated protein); purchased Carna Biosciences (Kobe, Japan)
Description: 2.9. Kinase inhibition assays with ADP-Glo
The ADP-Glo assay system was purchased from Promega. The kinase reaction buffer contained 50 mM Tris (pH 7.5), 10 mM MgCl2 and 0.01% (v/v) triton X-100. TNIK (1.25 nM) was incubated with various concentrations of analyte inhibitors in kinase reaction buffer at 25 °C for 10 min. After, the reactions were initiated by the addition of ATP and substrate […]
peptide (MSTtide, sequence: NH2-NKGYNTLRRKK-CONH2;ref 14 synthesized using the standard Fmoc SPPS techniques). The final mixtures containing 0.5 nM TNIK, 25 µM ATP, 15 µM MSTtide and variable concentration of the inhibitors were incubated at 25 °C for 30 min. The reactions were stopped by the addition of ADP -Glo reagent (1 volume), and the luminescent signal was developed following the manufacturer’s instructions. Luminesce was recorded on a Tecan M1000 PRO microplate reader (Tecan Group) with 1 s acquisition time and no signal attenuation. TNIK kinase activity was normalized to a no inhibitor control, and […]
values to the standard 4-parameter logistic curve model. […]

trypsin = test system: T2, trypsin; assay: Stability to agarose-immobilized trypsin (LC/MS); type: in vitro ADME; conditions: isolated enzyme trypsin, pH 7.9
T2 construct: purchased Thermo Fisher
Description: 2.10. Thiopeptide metabolic stability experiments
Stability to trypsin. To a solution of the analyte thiopeptide (15 µM) and the internal standard peptide (5 µM NH2-PEG5-wstndwdtnd-PEG5-CONH2;ref 16 lower case encoding is for D-amino acids; synthesized using the standard Fmoc SPPS techniques) in digestion buffer [50 mM tris, 100 mM NaCl, 10 mM EDTA, pH 7.9] was added agarose -immobilized TPCK-treated trypsin (Thermo Fisher; 1 µL of resin slurry; 100 µL final reaction volume ) that was previously washed with digestion buffer thrice. The mixture was agitated at 22 °C, and at various timepoints (0.5, 1, 2, 4, and 6 h) aliquots were withdrawn and quenched with 14 volumes of water/acetonitrile mixture [30: 70 (v/v) water: acetonitr ile with 0.1% (v/v) TFA]. […]

[4] = Stability to glutathione (LC/MS)
Description: Stability to glutathione. To a freshly prepared solution of glutathione (5 mM) in stability
buffer [50 mM HEPES (pH 7.5), 100 mM NaCl] was added a solution of analyte (1.5 mM
thiopeptide in DMSO; f. c.: 10 µM). The contents were mixed and transferred to a 37 °C
thermostat. At various time points (0.5, 1, 2, 4, 6, and 10 h) aliquots were withdrawn and
quenched with 2 volumes of methanol containing 30 mM iodoacetamide. The samples were
analyzed by LC/MS (0.3 µL; section 2.6) using method 3. Areas under the peak curve for all
thiopeptide-derived products in the sample (TIC chromatograms) were used to calculate
fractions of intact analyte. Thiopeptide half-life values were obtained from non-linear
regression (scipy)15 of experimentally measured values to the pseudo-first order
approximation for the reaction kinetics which can be used since [glutathione] >> [analyte].

[5] = test system: agarose-immobilized TPCK-treated trypsin (Thermo Fisher); assay: agarose-immobilized TPCK-treated trypsin in digestion buffer [50 mM tris, 100 mM NaCl, 10 mM EDTA, pH 7.9]; conditions: 22 °C, up to 6 h
[6] = 0.5 nM TNIK, 25 µM ATP, 15 µM MSTtide, 4-parameter logistic fit, read-out: ADP-Glo IC50 against TNIK

Row | Compound | half-life at 10 µM [1] | KD (TNIK [2]) | KD (binding affinity to TNIK) (TNIK [2]) | IC50 (TNIK [3]; [6]) | half-life at 15 µM (trypsin) | not cleaved [5] | also measured
1 | C=C1NC(=O)C(=C)NC(=O)[C@H](CCCCN)NC(=O)[C@H](CC(C)C)NC(=O)[C@H]([C@@H](C)O)NC(=O)[C@H](CCCCN)NC(=O)[C@H](Cc2ccc(O)cc2)NC(=O)[C@H]([C@@H](C)CC)NC(=O)[C@H](Cc2ccccc2)NC(=O)CNC(=O)[C@H](Cc2c[nH]c3ccccc23)NC(=O)c2ccc(-c3nc(C(=O)OC)cs3)nc2-c2csc(n2)C(=C)NC(=O)CNC1=O [TP1, reference compound] (WGFIYKTLK[Dha][Dha]G; linker N-C via X1) | 2.3 ± 0.1 h | – | – | – | – | – | –
2 | C=C1NC(=O)CN(C)C(=O)/C(=C/C)NC(=O)C(=C)NC(=O)[C@@H]2Cc3ccc(O)cc3CN2C(=O)[C@@H]2CCCN2C(=O)[C@H](CC(C)C)NC(=O)[C@H](Cc2c[nH]c3ccccc23)NC(=O)[C@H](Cc2c[nH]c3ccccc23)NC(=O)c2ccc(-c3nc(C(=O)OC)cs3)nc2-c2csc(n2)C(=C)NC(=O)c2csc(n2)/C(=C/C)NC(=O)/C(=C/C)NC1=O [hTP4] (WWLP[Tic(7-OH)][Dha][Dhb][Sar][Dha][Dhb][X3]; linker N-C via X1) | 18.7 ± 1.5 h | weak/no binding; fitting not conducted | no measurable binding/inhibition | 24.9 ± 3.6 µM | > 100 h | – | –
3 | C=C1NC(=O)[C@H](Cc2ccc([N+](=O)[O-])cc2)N(C)C(=O)CN(C)C(=O)CNC(=O)[C@H](Cc2c[nH]c3ccccc23)NC(=O)c2ccc(-c3nc(C(=O)OC)cs3)nc2-c2csc(n2)C(=C)NC(=O)c2csc(n2)[C@H](CC(C)C)NC(=O)[C@H](CO)NC(=O)[C@H](CCCNC(=N)N)NC(=O)[C@H](CC(N)=O)NC(=O)CN(C)C(=O)[C@H](CC(C)C)NC(=O)[C@H](CC(N)=O)NC1=O [hTP6] (WG[Sar][NMePhe(4-NO2)][Dha]NL[Sar]NRS[LeuThz(4-CO)]; linker N-C via X1) | 3.6 ± 0.1 h | weak/no binding; fitting not conducted | no measurable binding/inhibition | 10.7 ± 1.1 µM | 1.01 ± 0.07 h | – | metabolic stability, τ1/2, serum ([1]; human serum, 37 °C, first-order decay fit): unstable
4 | C=C1NC(=O)[C@@H]2Cc3ccc(O)cc3CN2C(=O)[C@H](CCCNC(=N)N)NC(=O)[C@H](CC(C)C)NC(=O)[C@H](Cc2ccc([N+](=O)[O-])cc2)N(C)C(=O)[C@H](CC(N)=O)NC(=O)[C@H](CC(C)C)NC(=O)[C@H](CCCNC(=N)N)NC(=O)[C@H](CCCC(N)=O)NC(=O)[C@H](C)NC(=O)[C@H](Cc2c[nH]c3ccccc23)NC(=O)c2ccc(-c3nc(C(=O)OC)cs3)nc2-c2csc(n2)C(=C)NC(=O)CNC1=O [hTP13] (WA[Aad](NH2)RLN[NMePhe(4-NO2)]LR[Tic(7-OH)][Dha]G; linker N-C via X1) | 18.9 ± 1.5 h | – | – | 2.7 ± 0.2 µM | 1.2 ± 0.1 h | – | half-life at 10 µM ([4]; 5 mM glutathione in HEPES buffer, pH 7.5): 1.9 ± 0.1 h; metabolic stability, τ1/2, glutathione ([4]; 5 mM glutathione, pH 7.5, 37 °C): less than 2 h; koff (TNIK [2]): 0.0533 s⁻¹; kon (TNIK [2]): 648000 M⁻¹ s⁻¹; Kd (TNIK [2]): 0.082 µM
5 | C=C1NC(=O)[C@@H]2Cc3ccc(O)cc3CN2C(=O)CN(C)C(=O)/C(=C/C)NC(=O)CN(C)C(=O)[C@H](CCCC(N)=O)NC(=O)[C@H](Cc2c[nH]c3ccccc23)NC(=O)[C@H](Cc2c[nH]c3ccccc23)NC(=O)c2ccc(-c3nc(C(=O)OC)cs3)nc2-c2csc(n2)C(=C)NC(=O)CNC(=O)/C(=C/C)NC(=O)[C@H](Cc2ccc([N+](=O)[O-])cc2)N(C)C(=O)[C@H]([C@@H](C)O)NC(=O)C(=C)NC1=O [wTP4] (WW[Aad](NH2)[Sar][Dhb][Sar][Tic(7-OH)][Dha][Dha]T[NMePhe(4-NO2)][Dhb]G; linker N-C via X1) | 14.3 ± 0.7 h | – | – | 0.24 ± 0.03 µM | > 100 h | – | koff (TNIK [2]): 0.000432 s⁻¹; kon (TNIK [2]): 42500 M⁻¹ s⁻¹; Kd (TNIK [2]): 0.0102 µM; ADP-Glo IC50 against TNIK (TNIK [3]; 0.5 nM TNIK, 25 µM ATP, 15 µM MSTtide, 4-parameter logistic fit): sub-μM
6 | C=C1NC(=O)[C@H](CCCC(N)=O)NC(=O)[C@@H]2Cc3ccc(O)cc3CN2C(=O)[C@H](CC(N)=O)NC(=O)/C(=C/C)NC(=O)[C@H](Cc2ccc([N+](=O)[O-])cc2)N(C)C(=O)CN(C)C(=O)[C@H](C)NC(=O)[C@H](Cc2c[nH]c3ccccc23)NC(=O)c2ccc(-c3nc(C(=O)OC)cs3)nc2-c2csc(n2)C(=C)NC(=O)c2csc(n2)[C@H](C(C)C)NC(=O)C(=C)NC(=O)/C(=C/C)NC1=O [wTP8] (WA[Sar][NMePhe(4-NO2)][Dhb]N[Tic(7-OH)][Aad](NH2)[Dha][Dhb][Dha][ValThz]; linker N-C via X1) | 34.9 ± 2.3 h | weak/no binding; fitting not conducted | no measurable binding/inhibition | 15.2 ± 1.5 µM | > 100 h | – | –
7 | C=C1NC(=O)[C@@H]2CCCN2C(=O)[C@H]([C@@H](C)O)NC(=O)CN(C)C(=O)CN(C)C(=O)CN(C)C(=O)[C@H](Cc2ccc([N+](=O)[O-])cc2)N(C)C(=O)[C@H](CC(N)=O)NC(=O)[C@@H]2Cc3ccc(O)cc3CN2C(=O)[C@H](Cc2ccc([N+](=O)[O-])cc2)N(C)C(=O)[C@H](CO)NC(=O)[C@H](CC(N)=O)NC(=O)[C@H]([C@@H](C)O)NC(=O)[C@H](Cc2c[nH]c3ccccc23)NC(=O)c2ccc(-c3nc(C(=O)OC)cs3)nc2-c2csc1n2 [wTP13] (WTNS[NMePhe(4-NO2)][Tic(7-OH)]N[NMePhe(4-NO2)][Sar][Sar][Sar]TP; linker N-C via X1) | 99.4 ± 13 h | weak/no binding; fitting not conducted | no measurable binding/inhibition | – | – | – | IC50 (TNIK [3]): 9.6 ± 0.7 µM; half-life at 15 µM (trypsin; agarose-immobilized trypsin, 22 °C, read-out: metabolic stability, τ1/2, trypsin): > 100 h
8 | AgfTNyCSTSVC | – | – | – | – | – | did not degrade (6 h); completely stable; τ1/2 >100 h | –
9 | TNSfyNfgggTP | – | – | – | – | – | completely stable; τ1/2 >100 h | –
10 | WCgSgySSTfSG | – | – | – | – | – | did not degrade (6 h); completely stable; τ1/2 >100 h | –
11 | WCgTgySSTfTG | – | – | – | – | – | did not degrade (6 h); completely stable; τ1/2 >100 h | –
12 | WLPySTgSTTC | – | – | – | – | – | did not degrade (6 h); τ1/2 > 100 h, no measurable degradation during the course of the experiment | –
